Experiments:
[1] = system: B16-F10; assay: Selectivity index, ratio of IC50 for mouse L929 cells to IC50 for mouse B16F10 cells; format: functional
[2] = system: B16-F10; assay: Selectivity index, ratio of IC50 for mouse Melan-a cells to IC50 for mouse B16F10 cells; format: functional
[3] = system: K562; assay: Selectivity index, ratio of IC50 for mouse L929 cells to IC50 for human K562 cells; format: functional
[4] = system: K562; assay: Selectivity index, ratio of IC50 for mouse Melan-a cells to IC50 for human K562 cells; format: functional
[5] = system: B16-F10; assay: Induction of apoptosis in mouse B16F10 cells assessed as increase in sub-diploid DNA content at 10 uM after 24 hrs by propidium iodide staining-based flow cytometric analysis relative to control; format: functional, cell-based
[6] = system: B16-F10; assay: Induction of apoptosis in mouse B16F10 cells assessed as late apoptotic cells at 10 uM after 48 hrs by annexin V-FITC/propidium iodide staining-based flow cytometric analysis (reference value: 0.450%); format: functional, cell-based
[7] = system: B16-F10; assay: Induction of apoptosis in mouse B16F10 cells assessed as viable cells at 1 uM after 48 hrs by annexin V-FITC/propidium iodide staining-based flow cytometric analysis (reference value: 98.4%); format: functional, cell-based
[8] = system: B16-F10; assay: Induction of apoptosis in mouse B16F10 cells assessed as increase in sub-diploid DNA content at 100 uM after 24 hrs by propidium iodide staining-based flow cytometric analysis relative to control; format: functional, cell-based
[9] = system: B16-F10; assay: Induction of apoptosis in mouse B16F10 cells assessed as increase in sub-diploid DNA content at 10 uM after 24 hrs by propidium iodide staining-based flow cytometric analysis relative to staurosporin; format: functional, cell-based
[10] = system: B16-F10; assay: Induction of apoptosis in mouse B16F10 cells assessed as dead cells at 100 uM after 48 hrs by annexin V-FITC/propidium iodide staining-based flow cytometric analysis (reference value: 1.11%); format: functional, cell-based
[11] = system: B16-F10; assay: Induction of apoptosis in mouse B16F10 cells assessed as late apoptotic cells at 1 uM after 48 hrs by annexin V-FITC/propidium iodide staining-based flow cytometric analysis (reference value: 0.450%); format: functional, cell-based
[12] = system: B16-F10; assay: Induction of apoptosis in mouse B16F10 cells assessed as increase in sub-diploid DNA content at 100 uM after 48 hrs by propidium iodide staining-based flow cytometric analysis relative to control; format: functional, cell-based
[13] = system: B16-F10; assay: Induction of apoptosis in mouse B16F10 cells assessed as early apoptotic cells at 10 uM after 48 hrs by annexin V-FITC/propidium iodide staining-based flow cytometric analysis (reference value: 0.087%); format: functional, cell-based
[14] = system: B16-F10; assay: Induction of apoptosis in mouse B16F10 cells at 1 uM after 48 hrs by annexin V-FITC/propidium iodide staining-based flow cytometric analysis relative to control; format: functional, cell-based
[15] = system: B16-F10; assay: Induction of apoptosis in mouse B16F10 cells assessed as dead cells at 1 uM after 48 hrs by annexin V-FITC/propidium iodide staining-based flow cytometric analysis (reference value: 1.11%); format: functional, cell-based
[16] = system: B16-F10; assay: Induction of apoptosis in mouse B16F10 cells assessed as early apoptotic cells at 1 uM after 48 hrs by annexin V-FITC/propidium iodide staining-based flow cytometric analysis (reference value: 0.087%); format: functional, cell-based
[17] = system: B16-F10; assay: Induction of apoptosis in mouse B16F10 cells assessed as increase in sub-diploid DNA content at 100 uM after 24 hrs by propidium iodide staining-based flow cytometric analysis relative to staurosporin; format: functional, cell-based
[18] = system: B16-F10; assay: Induction of apoptosis in mouse B16F10 cells at 1 to 100 uM after 48 hrs by annexin V-FITC/propidium iodide staining-based flow cytometric analysis relative to staurosporine; format: functional, cell-based
[19] = system: B16-F10; assay: Induction of apoptosis in mouse B16F10 cells assessed as viable cells at 10 uM after 48 hrs by annexin V-FITC/propidium iodide staining-based flow cytometric analysis (reference value: 98.4%); format: functional, cell-based
[20] = system: B16-F10; assay: Induction of apoptosis in mouse B16F10 cells at 100 uM after 48 hrs by annexin V-FITC/propidium iodide staining-based flow cytometric analysis relative to control; format: functional, cell-based
[21] = system: B16-F10; assay: Induction of apoptosis in mouse B16F10 cells assessed as early apoptotic cells at 100 uM after 48 hrs by annexin V-FITC/propidium iodide staining-based flow cytometric analysis (reference value: 0.087%); format: functional, cell-based
[22] = system: B16-F10; assay: Induction of apoptosis in mouse B16F10 cells at 10 uM after 48 hrs by annexin V-FITC/propidium iodide staining-based flow cytometric analysis relative to control; format: functional, cell-based
[23] = system: B16-F10; assay: Induction of apoptosis in mouse B16F10 cells assessed as dead cells at 10 uM after 48 hrs by annexin V-FITC/propidium iodide staining-based flow cytometric analysis (reference value: 1.11%); format: functional, cell-based
[24] = system: B16-F10; assay: Induction of apoptosis in mouse B16F10 cells assessed as increase in sub-diploid DNA content at 10 uM after 48 hrs by propidium iodide staining-based flow cytometric analysis relative to control; format: functional, cell-based
[25] = system: B16-F10; assay: Induction of apoptosis in mouse B16F10 cells assessed as late apoptotic cells at 100 uM after 48 hrs by annexin V-FITC/propidium iodide staining-based flow cytometric analysis (reference value: 0.450%); format: functional, cell-based
[26] = system: B16-F10; assay: Induction of apoptosis in mouse B16F10 cells assessed as viable cells at 100 uM after 48 hrs by annexin V-FITC/propidium iodide staining-based flow cytometric analysis (reference value: 98.4%); format: functional, cell-based
[27] = system: B16-F10; assay: Induction of apoptosis in mouse B16F10 cells assessed as late apoptotic cells at 0.1 uM after 48 hrs by annexin V-FITC/propidium iodide staining-based flow cytometric analysis (reference value: 0.450%); format: functional
[28] = system: B16-F10; assay: Induction of apoptosis in mouse B16F10 cells assessed as early apoptotic cells at 0.1 uM after 48 hrs by annexin V-FITC/propidium iodide staining-based flow cytometric analysis (reference value: 0.087%); format: functional
[29] = system: B16-F10; assay: Induction of apoptosis in mouse B16F10 cells at 0.1 uM after 48 hrs by annexin V-FITC/propidium iodide staining-based flow cytometric analysis relative to control; format: functional
[30] = system: B16-F10; assay: Induction of apoptosis in mouse B16F10 cells assessed as viable cells at 0.1 uM after 48 hrs by annexin V-FITC/propidium iodide staining-based flow cytometric analysis (reference value: 98.4%); format: functional; conditions: B16-F10, 48 h, read-out: Activity
[31] = system: B16-F10; assay: Induction of apoptosis in mouse B16F10 cells assessed as dead cells at 0.1 uM after 48 hrs by annexin V-FITC/propidium iodide staining-based flow cytometric analysis (reference value: 1.11%); format: functional
[32] = Induction of apoptosis in mouse thymocytes at 30 uM after 3 hrs by annexin V-FITC/ethidium bromide staining-based flow cytometric analysis relative to control; format: cell-based; conditions: thymocyte
[33] = system: HL-60; assay: Induction of apoptosis in human HL60 cells assessed as increase in sub-diploid DNA content at 0.44 uM after 12 hrs by propidium iodide staining-based flow cytometric analysis relative to control; format: functional, cell-based
[34] = system: HL-60; assay: Induction of apoptosis in human HL60 cells assessed as increase in sub-diploid DNA content at 0.44 uM after 6 hrs by propidium iodide staining-based flow cytometric analysis relative to control; format: functional, cell-based
[35] = system: L929; assay: Cytotoxicity against mouse L929 cells assessed as cell viability after 72 hrs by MTT assay; format: cell-based
[36] = Cytotoxicity against mouse B16F10 cells assessed as cell viability after 72 hrs by MTT assay; format: functional, cell-based, B16-F10
[37] = Cytotoxicity against mouse Melan-a cells assessed as cell viability after 72 hrs by MTT assay; format: cell-based
[38] = system: K562; assay: Cytotoxicity against human K562 cells assessed as cell viability after 72 hrs by tryphan blue assay; format: functional, cell-based

In the case of “Bis-(4-acetylbenzoato)triphenylbismuth(V)”, the Ratio IC50 [1] is reported as 1.8, the Ratio IC50 [2] is reported as 12.7 and the Ratio IC50 [3] is reported as 1. It also gave a Ratio IC50 [4] of 7.4.

With “Bis-(2-acetylbenzoato)triphenylbismuth(V)” the fold change (FC) [5] was 18, the Ratio IC50 [1] was 6.1 and the Activity [6] was 77.3%. The Activity [7] was 66.1%, the fold change (FC) [8] was 70 and the fold change (FC) [9] was 18. It also gave an Activity [10] of 7.1%, an Activity [11] of 14.6% and a fold change (FC) [12] of 256. It also gave an Activity [13] of 6.81%, a fold change (FC) [14] of 8 and an Activity [15] of 3.89%. The Activity [16] was 15.4%, the fold change (FC) [17] was 70 and the fold change (FC) [18] was 1.5. The Activity [19] was 5.22%, the fold change (FC) [20] was 34 and the Ratio IC50 [2] was 13. It also gave an Activity [21] of 1.25%, a Ratio IC50 [3] of 24.6 and a fold change (FC) [22] of 33. The Ratio IC50 [4] was 52.4, the Activity [23] was 10.7% and the fold change (FC) [24] was 129. It also gave an Activity [25] of 90.1% and an Activity [26] of 1.57%.

Molecule “Bis-(5-acetylsalicylato)triphenylantimony(V) chloroform solvate” has a Ratio IC50 [1] of 2.2, a Ratio IC50 [2] of 1.6 and a Ratio IC50 [3] of 7.9. The Ratio IC50 [4] was 5.6.

In the case of CN[C@@H]1C[C@H]2O[C@@](C)([C@@H]1OC)n1c3ccccc3c3c4c(c5c6ccccc6n2c5c31)C(=O)NC4 [STAUROSPORINE], the Activity [27] is reported as 43.5%, the Activity [28] is reported as 0.461% and the “fold change (FC)” value [29] is reported as 21. For the same molecule, the viability at 0.1 µM [30] was 33.9% and the Activity [31] was 22.2%.

triphenylantimony(V) dichloride showed a Ratio IC50 [1] of 1.9, a Ratio IC50 [2] of 6.7 and a Ratio IC50 [3] of 2.6. The Ratio IC50 [4] was 2.6.

For TRIPHENYLBISMUTHINE, the “fold change (FC)” value [32] was 5.

Work on [sequence] yielded a Ratio IC50 [1] of 8, a Ratio IC50 [2] of 6.7 and a Ratio IC50 [3] of 5. It also gave a Ratio IC50 [4] of 4.1.

Bi-chlorodibenzo[c,f][1,5]thiabismocine showed an Activity [33] of 80% and a fold change (FC) [34] of 13.

In the case of CC(=O)c1ccc(O)c(C(=O)O)c1, the “Ratio IC50” value [1] is reported as under 1, the IC50 ([35]; Mus musculus, L929, 72 h) is reported as 306 µM and the IC50 ([36]; Mus musculus, B16-F10, 72 h) is reported as 4880 µM. For the same molecule, the “Ratio IC50” value [2] was under 1, the “Ratio IC50” value [3] was under 1 and the “Ratio IC50” value [4] was under 1.

DICHLOROTRIPHENYLBISMUTHANE showed an IC50 ([37]; melan-a) of 130 µM, an IC50 ([38]; k562) of 31.1 µM and an IC50 ([35]; l929) of 154 µM. For the same molecule, the IC50 ([36]; b16-f10) was 19.2 µM.

With CC(=O)c1ccccc1C(=O)O the “Ratio IC50” value [1] was under 1, the IC50 ([37]; Mus musculus, Melan-a, 72 h) was 775 µM and the IC50 ([38]; Homo sapiens, K562, 72 h) was 502 µM. The IC50 ([35]; Mus musculus, L929, 72 h) was 474 µM, the IC50 ([36]; Mus musculus, B16-F10, 72 h) was 852 µM and the “Ratio IC50” value [2] was under 1. The “Ratio IC50” value [3] was under 1 and the “Ratio IC50” value [4] was 1.5.

In the case of CC(=O)c1ccc(C(=O)O)cc1, the “Ratio IC50” value [1] is reported as 1.8, the IC50 ([38]; Homo sapiens, K562, 72 h) is reported as under 1000 µM and the IC50 ([35]; Mus musculus, L929, 72 h) is reported as 331 µM. For the same molecule, the IC50 ([36]; Mus musculus, B16-F10, 72 h) was 176 µM, the “Ratio IC50” value [2] was under 1 and the “Ratio IC50” value [3] was under 1. For the same molecule, the “Ratio IC50” value [4] was under 1.

“bis-(4-acetylbenzoato)triphenylantimony(V)” showed a Ratio IC50 [1] of 3.1, a Ratio IC50 [2] of 6.6 and a Ratio IC50 [3] of 3.4. For the same molecule, the Ratio IC50 [4] was 7.2.
